Source: patent US9040713B2, “Methods of managing blood sugar levels and compositions related thereto” (EMORY UNIVERSITY, priority 2010, dated 2015)

Experiments:
wild-type MEF cells = assay: [3H] 2-deoxyglucose transport in wild-type MEF cells; type: cell-based, mouse; settings: insulin 100 nM 15 min or compound 5 μM 30 min
Procedure: (§1) Insulin signaling in the cell lysates were tested by immunoblotting. (B) DDN stimulates glucose uptake. […] [3H]2-deoxyglucose was then added, and the cells were further incubated for 10 min. [3H]2-deoxyglucose uptake by adipocytes was measured by scintillation counting (*: P<0.05 **: P<0.01 vs control, Student's t-test, n=3). (C) DDN synergizes insulin's signaling. […] Cell lysates were then prepared for Western blot using specific antibodies as indicated. […] 3H-2-deoxyglucose was then added, and the cells were further incubated for 10 min. 3H-2-deoxyglucose uptake by adipocytes was measured by scintillation counting (*: P<0.05; **: P<0.01, Student's t-test, n=3). (E) IR is necessary for DDN to induce ERK phosphorylation. Differentiated 3T3-L1 adipocytes were transfected with control siRNA or siRNA against IR. […] Cell lysates were analyzed by Western blot. (F) The glucose uptake induced by DDN in p85α knockout MEF cells. […] The uptake of 3H-2-deoxyglucose was monitored by liquid scintillation counting (*: P<0.05; **: P<0.01 vs control, Student's t-test, n=3).
(A) 4524-E7 activates IR phosphorylation and its downstream signaling in 3T3-L1 adipocytes. […] The cells were lysed, and immunoprecipitated with PY20, and followed by Western blot using specific antibodies. (B) 4524-E7 stimulates glucose uptake in 3T3-L1 adipocytes. […] [3H]2-deoxyglucose was added, and the cells were further incubated for 10 min. The amount of [3H]2-deoxyglucose taken by adipocytes was measured. (C) 4524-E7 inhibits fatty acid oxidation. […] Results were normalized to DMSO-treated cells and expressed as mean±S.E.M. (*: P<0.05; **:P<0.01, Student's t-test, n=3). (D) IR knockdown in adipocytes decreases IR signaling by 4524-E7. […] Cells lysates were collected and analyzed by Western blot. […] 2-deoxyglucose was monitored by liquid scintillation counter. Results were expressed as mean±S.E.M. (*: P<0.05; **:P<0.01, Student's t-test, n=3).
NIH 3T3-L1 preadipocytes and MEFs were grown in standard media. […] After neutralization, radioactivity was measured by scintillation counting

IR = IR (Mus musculus, UniProt P15208); assay: IR signaling in differentiated 3T3-L1 adipocytes (immunoblotting); type: cell-based; design: endogenous in cells; host or cells: differentiated 3T3-L1 adipocytes; settings: for Akt and ERK phosphorylation after IR knockdown / ERK phosphorylation after IR knockdown: siRNA against IR; for Akt and ERK phosphorylation after IR knockdown: 5 μM 4524-E7 or insulin 100 nM; for IR phosphorylation: 5 nM; for ERK phosphorylation after IR knockdown: insulin 100 nM 15 min or DDN 5 μM 30 min
Chain of IR (P15208 28-1372): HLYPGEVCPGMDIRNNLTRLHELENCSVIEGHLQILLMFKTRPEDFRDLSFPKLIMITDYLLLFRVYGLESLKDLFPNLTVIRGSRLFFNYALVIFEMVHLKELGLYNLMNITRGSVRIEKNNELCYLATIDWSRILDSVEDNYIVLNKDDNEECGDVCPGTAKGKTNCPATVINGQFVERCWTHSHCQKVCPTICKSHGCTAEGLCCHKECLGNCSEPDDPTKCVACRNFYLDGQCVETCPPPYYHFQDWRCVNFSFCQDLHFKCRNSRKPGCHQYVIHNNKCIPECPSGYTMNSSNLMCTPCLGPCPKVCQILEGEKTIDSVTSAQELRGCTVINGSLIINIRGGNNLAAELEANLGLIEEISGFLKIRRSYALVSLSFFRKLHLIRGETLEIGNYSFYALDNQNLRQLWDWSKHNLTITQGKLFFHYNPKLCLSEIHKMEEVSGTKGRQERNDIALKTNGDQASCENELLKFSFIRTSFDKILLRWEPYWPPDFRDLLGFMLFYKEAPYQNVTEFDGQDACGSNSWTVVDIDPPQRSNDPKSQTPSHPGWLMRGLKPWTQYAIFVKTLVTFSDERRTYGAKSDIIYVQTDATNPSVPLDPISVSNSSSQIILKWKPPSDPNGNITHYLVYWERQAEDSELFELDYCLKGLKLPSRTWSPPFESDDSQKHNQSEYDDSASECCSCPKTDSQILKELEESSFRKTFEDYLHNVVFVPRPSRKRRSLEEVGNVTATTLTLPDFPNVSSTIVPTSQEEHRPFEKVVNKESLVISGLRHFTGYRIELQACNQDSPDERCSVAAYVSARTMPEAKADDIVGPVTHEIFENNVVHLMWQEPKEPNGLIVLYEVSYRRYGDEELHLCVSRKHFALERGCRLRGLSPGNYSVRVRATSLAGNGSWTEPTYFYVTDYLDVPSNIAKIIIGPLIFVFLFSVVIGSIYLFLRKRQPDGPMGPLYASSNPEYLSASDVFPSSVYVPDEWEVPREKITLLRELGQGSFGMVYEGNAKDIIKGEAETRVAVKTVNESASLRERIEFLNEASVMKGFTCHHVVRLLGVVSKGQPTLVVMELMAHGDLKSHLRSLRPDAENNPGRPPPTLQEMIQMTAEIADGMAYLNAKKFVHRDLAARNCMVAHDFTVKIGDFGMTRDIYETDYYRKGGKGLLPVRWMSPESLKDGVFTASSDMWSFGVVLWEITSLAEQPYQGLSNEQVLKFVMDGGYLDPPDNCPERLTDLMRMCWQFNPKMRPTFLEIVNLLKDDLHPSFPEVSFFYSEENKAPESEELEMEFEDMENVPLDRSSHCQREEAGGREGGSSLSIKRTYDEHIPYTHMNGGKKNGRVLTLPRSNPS
Procedure: as §1
(A) 4524-E7 activates IR phosphorylation and its downstream signaling in 3T3-L1 adipocytes. […] The cells were lysed, and immunoprecipitated with PY20, and followed by Western blot using specific antibodies. (B) 4524-E7 stimulates glucose uptake in 3T3-L1 adipocytes. […] [3H]2-deoxyglucose was added, and the cells were further incubated for 10 min. The amount of [3H]2-deoxyglucose taken by adipocytes was measured. (C) 4524-E7 inhibits fatty acid oxidation. […] Results were normalized to DMSO-treated cells and expressed as mean±S.E.M. (*: P<0.05; **:P<0.01, Student's t-test, n=3). (D) IR knockdown in adipocytes decreases IR signaling by 4524-E7. […] Cells lysates were collected and analyzed by Western blot. (E) The glucose uptake induced by 4524-E7 in p85α knockout MEF cells. […] The uptaken [3H] 2-deoxyglucose was monitored by liquid scintillation counter. Results were expressed as mean±S.E.M. (*: P<0.05; **:P<0.01, Student's t-test, n=3). […]

Compound	[3H]-2-deoxyglucose uptake (wild-type MEF cells)	IR, Akt and Erk1/2 phosphorylation in combination with insulin (IR; 4524-E7 plus 10 nM insulin)	activation of endogenous IR (IR; different concentrations, 15 min, alone)	Akt and ERK phosphorylation after IR knockdown (IR)	IR phosphorylation in combination with insulin (IR; 5 nM DDN plus 5 nM insulin)	IR phosphorylation (IR; alone)	IR and Akt activation (IR; DDN 0.1, 0.25, 0.5 μM, 30 min)	ERK phosphorylation after IR knockdown (IR)
O=C1c2ccccc2C(=O)C2SC(Nc3ccc(Cl)cc3)=NC12 (stereo not shown) [4524-E7, 2-((4-chlorophenyl)amino)naphtho[2,3-d]thiazole-4,9(3aH,9aH)-dione]	triggered robust [3H]-2-deoxyglucose uptake	much more robust IR, Akt and Erk1/2 phosphorylation than insulin or 4524-E7 alone	could activate the endogenous IR	also reduced				
CC(=O)Oc1ccc(OC(C)=O)c2c1C(=O)C(Cl)=C(Cl)C2=O [DDN, 5,8-diacetyloxy-2,3-dichloro-1,4-naphthoquinone]	triggered robust 3H-deoxyglucose uptake				higher than those observed when insulin or DDN was administrated separately	did not induce any IR activation	elicited a dose-dependent IR and Akt activation	reduced when IR was depleted
insulin: insulin, used as positive control	triggered robust [3H]-2-deoxyglucose uptake			also reduced		able to trigger IR phosphorylation		reduced when IR was depleted
